# Experimental data as given in patent US20100022542A1, “COMPOUNDS EXHIBITING THROMBOPOIETIN RECEPTOR AGONISM” (Shionogi & Co., Ltd., priority 2000, published 2010).
# Target: T1, human TPO receptor (hTPOR) (Homo sapiens, UniProt P40238)
# T1 construct: expressed in transfected cells; host or cells: BaF-B03 (murine IL-3 dependent cell line)
# T1 sequence (P40238 26-635): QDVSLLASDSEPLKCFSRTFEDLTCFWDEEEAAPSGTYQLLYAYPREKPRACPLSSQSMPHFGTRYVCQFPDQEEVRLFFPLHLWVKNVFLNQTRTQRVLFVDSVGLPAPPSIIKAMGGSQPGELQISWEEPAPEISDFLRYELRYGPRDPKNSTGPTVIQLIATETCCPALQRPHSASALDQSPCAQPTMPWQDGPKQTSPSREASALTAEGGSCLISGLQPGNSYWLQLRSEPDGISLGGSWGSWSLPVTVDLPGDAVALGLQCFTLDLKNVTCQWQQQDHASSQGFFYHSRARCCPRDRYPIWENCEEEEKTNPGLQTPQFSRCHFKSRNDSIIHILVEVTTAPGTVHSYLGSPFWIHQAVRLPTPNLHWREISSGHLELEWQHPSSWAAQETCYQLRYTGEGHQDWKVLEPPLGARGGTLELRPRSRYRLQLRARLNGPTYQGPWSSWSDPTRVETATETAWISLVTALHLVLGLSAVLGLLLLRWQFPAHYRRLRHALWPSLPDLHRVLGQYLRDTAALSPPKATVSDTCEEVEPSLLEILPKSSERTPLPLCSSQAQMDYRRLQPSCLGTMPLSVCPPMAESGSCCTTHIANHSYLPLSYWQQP
# Experiment: Proliferation of TPO dependent BaF/hTPOR cells, WST-1, thrombopoietic activity ED50 (Test Example 3)
# Format: cell-based
# Details: 20 h incubation then WST-1 4 h, absorbance at 450 nm
# Excerpt: FIG. 2: The chart represents proliferation of the human TPO dependent cells bearing human TPO receptors by the present invention compound, wherein the x-axis is concentration of the present invention compound, and the y-axis is the absorbance as an indicator of cell proliferation. Open circles indicate a response of human TPO, and closed circles indicate a response of the compound (B-1).
# The TPO dependent BaF/hTPOR cell line which was established by introducing human TPO receptor (hTPOR) into BaF-B03 cells according to Collins et al (J. Cell. Physiol., 137:293-298 (1988)) was used to test the thrombopoietic activity of the present compound. The DNA sequences and encoded peptide sequences for human hTPOR have been described by Vigon et al (Proc. Natl. Acad. Sci. USA, 89:5640-5644 (1992)). TPO dose not have any ability to support proliferation of interleukin-3 dependent parental cell line BaF-B03. BAF/hTPOR cells were maintained in RPMI medium and WEHI-3B conditioned medium as a source of murine interleukin-3 (IL-3). These cells were washed and resuspended in RPMI medium without a source of murine IL-3 and seeded into each well of 96-well microtiter plates at a density of 5×10^4 cells per well in the absence or presence of various concentration of hTPO or the present compound. After incubation at 37° C. for 20 hours in the 5% CO2 incubator, 10% WST-1 reagent (Takara Biomedicals, Japan) was added to each wells and the cells were further incubated for 4 hours. Effect of the present compound on the growth of BAF/mTPOR cell line which was established by introducing murine TPO receptor (mTPOR) into BAF-B03 cells is shown in FIG. 3. Table 8 exemplifies the ED50 for tested compounds of the present invention, wherein the ED50 is the half concentration of the concentration showing the maximum thrombopoietic activity.
compound,measurement,value
CC(Cc1ccc(C(=O)Nc2nc(-c3ccc(Cl)c(Cl)c3)cs2)cc1)C(=O)O (stereo not drawn) [Compound G-3],EC50,0.43 µM
O=C(Nc1nc(-c2ccc(Cl)c(Cl)c2)cs1)c1ccc(CC(Cl)C(=O)O)cc1 (stereo not drawn) [Compound G-4],EC50,0.24 µM
COC(=O)C(Cl)Cc1ccc(C(=O)Nc2nc(-c3ccc(Cl)c(Cl)c3)cs2)cc1 (stereo not drawn) [Compound G-5],EC50,0.26 µM
O=C(Nc1nc(-c2ccc(Cl)c(Cl)c2)cs1)c1ccc(CC(F)C(=O)O)cc1 (stereo not drawn) [Compound G-6],EC50,0.37 µM
CCOC(=O)C(F)Cc1ccc(C(=O)Nc2nc(-c3ccc(Cl)c(Cl)c3)cs2)cc1 (stereo not drawn) [Compound G-7],EC50,0.4 µM
CC(c1ccc(C(=O)Nc2nc(-c3ccc(Cl)c(Cl)c3)cs2)cc1)C(Cl)C(=O)O (stereo not drawn) [Compound G-8],EC50,0.36 µM
Cc1sc(NC(=O)c2ccc(/C=C(\Cl)C(=O)O)cc2)nc1-c1ccc(F)cc1F [Compound J-11],EC50,0.311 µM
Cc1sc(NC(=O)c2ccc(/C=C(\Cl)C(=O)O)cc2)nc1-c1cccc(C(F)(F)F)c1F [Compound J-12],EC50,0.107 µM
Cc1sc(NC(=O)c2ccc(/C=C(\Cl)C(=O)O)cc2)nc1-c1cccc(Br)c1 [Compound J-13],EC50,0.116 µM
Cc1sc(NC(=O)c2ccc(/C=C(\Cl)C(=O)O)cc2)nc1-c1cccc(C(F)(F)F)c1 [Compound J-14],EC50,0.036 µM
CCCCCc1cccc2c1CCc1sc(NC(=O)c3ccc(/C=C(\Cl)C(=O)O)cc3)nc1-2 [Compound J-15],EC50,0.011 µM
COC(=O)C#Cc1ccc(C(=O)Nc2nc(-c3ccc(Cl)c(Cl)c3)cs2)cc1 [Compound L-1],EC50,0.208 µM
O=C(O)C#Cc1ccc(C(=O)Nc2nc(-c3ccc(Cl)c(Cl)c3)cs2)cc1 [Compound L-2],EC50,0.143 µM
COC(=O)C#Cc1ccc(C(=O)Nc2nc(-c3ccc(Cl)c(Cl)c3)cs2)cc1OC [Compound L-3],EC50,0.321 µM
COc1cc(C(=O)Nc2nc(-c3ccc(Cl)c(Cl)c3)cs2)ccc1C#CC(=O)O [Compound L-4],EC50,0.256 µM
